Laboratory results published in patent US20200399318A1, “PEPTIDE INHIBITORS OF PHOSPHOGLYCERATE MUTASE AND METHODS OF USE” (priority 2016, published 2020).
Where a SMILES comes first, the peptide text is derived from it. Bridges are numbered along the chain shown (N, C = ends). [ ]: non-standard residue; d: D form.

How the values were obtained:
D. immitis iPGM = format: biochemical, Dirofilaria immitis
B. malayi iPGM = B. malayi iPGM (Brugia malayi, UniProt Q4VWF8); assay: biochemical
E. coli iPGM = E. coli iPGM (Escherichia coli, UniProt P37689); assay: biochemical
E. coli iPGM, sequence (P37689 whole entry, looked up): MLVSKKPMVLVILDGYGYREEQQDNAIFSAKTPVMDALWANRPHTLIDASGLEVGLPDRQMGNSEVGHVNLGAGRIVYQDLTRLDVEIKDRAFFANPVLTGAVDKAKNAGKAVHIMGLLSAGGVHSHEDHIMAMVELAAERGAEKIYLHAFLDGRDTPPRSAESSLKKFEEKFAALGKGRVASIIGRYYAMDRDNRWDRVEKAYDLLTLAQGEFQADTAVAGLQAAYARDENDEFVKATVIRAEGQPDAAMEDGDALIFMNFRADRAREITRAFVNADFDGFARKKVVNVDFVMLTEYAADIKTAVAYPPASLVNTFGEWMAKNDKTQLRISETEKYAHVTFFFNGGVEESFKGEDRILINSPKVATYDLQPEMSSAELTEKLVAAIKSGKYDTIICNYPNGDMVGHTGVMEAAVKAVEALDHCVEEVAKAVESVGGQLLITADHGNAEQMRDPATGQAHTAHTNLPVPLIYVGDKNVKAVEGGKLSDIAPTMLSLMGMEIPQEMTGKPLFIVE

O. volvulus iPGM = O. volvulus iPGM (Onchocerca volvulus, UniProt I6LDA6); assay: biochemical
O. volvulus iPGM, sequence (I6LDA6 whole entry, looked up): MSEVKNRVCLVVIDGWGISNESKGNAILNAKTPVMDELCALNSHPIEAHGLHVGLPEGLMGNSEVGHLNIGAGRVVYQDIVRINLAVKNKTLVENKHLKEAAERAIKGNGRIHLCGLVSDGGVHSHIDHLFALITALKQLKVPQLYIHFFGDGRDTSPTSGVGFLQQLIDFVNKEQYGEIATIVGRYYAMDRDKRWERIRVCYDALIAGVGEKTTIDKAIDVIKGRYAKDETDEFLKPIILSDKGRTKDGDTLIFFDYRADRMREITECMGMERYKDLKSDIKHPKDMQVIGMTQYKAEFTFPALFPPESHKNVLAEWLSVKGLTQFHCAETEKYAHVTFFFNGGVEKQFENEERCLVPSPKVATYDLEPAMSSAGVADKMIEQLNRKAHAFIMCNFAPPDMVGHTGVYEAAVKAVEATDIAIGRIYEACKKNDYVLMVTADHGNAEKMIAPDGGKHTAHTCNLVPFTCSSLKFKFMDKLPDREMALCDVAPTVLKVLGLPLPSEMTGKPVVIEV

[1] = read-out: B. malayi iPGM Max Inhibition
[2] = read-out: E. coli iPGM Max Inhibition
[3] = read-out: O. volvulus iPGM Max Inhibition

B. malayi iPGM, sequence (Q4VWF8 whole entry, looked up): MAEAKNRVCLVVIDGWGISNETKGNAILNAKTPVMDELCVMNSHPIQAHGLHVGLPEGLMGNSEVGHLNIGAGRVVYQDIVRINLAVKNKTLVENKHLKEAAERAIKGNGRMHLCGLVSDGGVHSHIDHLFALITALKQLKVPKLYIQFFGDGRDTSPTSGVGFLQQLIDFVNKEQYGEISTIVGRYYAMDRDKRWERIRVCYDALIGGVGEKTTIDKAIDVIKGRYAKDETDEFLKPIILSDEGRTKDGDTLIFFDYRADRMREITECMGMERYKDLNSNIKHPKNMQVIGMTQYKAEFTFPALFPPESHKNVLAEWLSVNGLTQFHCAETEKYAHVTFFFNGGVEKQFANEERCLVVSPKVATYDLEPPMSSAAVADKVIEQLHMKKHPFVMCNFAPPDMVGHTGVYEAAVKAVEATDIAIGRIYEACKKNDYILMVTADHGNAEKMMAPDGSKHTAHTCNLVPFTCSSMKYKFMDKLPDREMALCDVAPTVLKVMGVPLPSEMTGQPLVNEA

Row | Structure (SMILES) | D. immitis iPGM Max Inhibition (D. immitis iPGM) | pIC50 B. malayi iPGM (B. malayi iPGM) | Emax (B. malayi iPGM; [1]) [%] | pIC50 E. coli iPGM (E. coli iPGM) | Emax (E. coli iPGM; [2]) [%] | O. volvulus iPGM PIC50, M (O. volvulus iPGM) [M] | Emax (O. volvulus iPGM; [3]) [%] | E. coli iPGM PIC50, M (E. coli iPGM) [M] | pIC50 O. volvulus iPGM (O. volvulus iPGM) | B. malayi iPGM PIC50, M (B. malayi iPGM) [M] | inhibition at 0.0005 µM (B. malayi iPGM; [1]) [%] | inhibition at 0.0005 µM (E. coli iPGM; [2]) [%] | inhibition at 0.0005 µM (O. volvulus iPGM; [3]) [%]
1 | CC[C@H](C)[C@@H]1NC(=O)[C@H](CCC(=O)O)NC(=O)[C@@H]2CCCN2C(=O)[C@H](C)NC(=O)[C@H](CC(N)=O)NC(=O)[C@@H]2CCCN2C(=O)[C@H](Cc2c[nH]c3ccccc23)NC(=O)[C@H](CO)NC(=O)[C@@H](Cc2ccc(O)cc2)NC(=O)CSC[C@@H](C(=O)N[C@@H](CS)C(=O)NCC(N)=O)NC(=O)[C@H](CCCCN)NC(=O)[C@H](Cc2c[nH]c3ccccc23)NC1=O [Bm-1] ({CH2CO}-[dY]SWPNAPEIWKCCG-NH2; thioether N-12) | −85.9 ± 0.2 | 5.89 | 82.8 ± 0.9 | 5.31 | 60.6 ± 9 | 5.88 ± 0.53 | 82.1 ± 5.4 | – | – | – | – | – | –
2 | CC(C)C[C@@H]1NC(=O)[C@@H](Cc2ccc(O)cc2)NC(=O)CSC[C@@H](C(=O)N[C@@H](CC(N)=O)C(=O)N[C@H](C(=O)N[C@@H](CS)C(=O)NCC(N)=O)[C@@H](C)O)NC(=O)[C@H](CC(N)=O)NC(=O)[C@@H]2CCCN2C(=O)[C@H](Cc2c[nH]c3ccccc23)NC(=O)[C@H](CCC(=O)O)NC1=O [Bm-4] ({CH2CO}-[dY]LEWPNCNTCG-NH2; thioether N-7) | −88.1 ± 0.8 | 6.24 | 86.3 ± 1.4 | – | 76.3 ± 8.3 | – | 85.7 ± 6.5 | 5.56 ± 0.16 | 6.10 | – | – | – | –
3 | CC(C)C[C@@H]1NC(=O)[C@@H](Cc2ccc(O)cc2)NC(=O)CSC[C@@H](C(=O)N[C@@H](CC(N)=O)C(=O)N[C@H](C(=O)N[C@@H](CS)C(N)=O)[C@@H](C)O)NC(=O)[C@H](CC(N)=O)NC(=O)[C@@H]2CCCN2C(=O)[C@H](Cc2c[nH]c3ccccc23)NC(=O)[C@H](CCC(=O)O)NC1=O [Bm-4a] ({CH2CO}-[dY]LEWPNCNTC-NH2; thioether N-7) | −90.5 ± 1.5 | – | 88 ± 0.4 | – | 78.3 ± 3.4 | 6.14 ± 0.62 | 87.8 ± 4.1 | 5.58 ± 0.19 | – | 6.31 ± 0.29 | – | – | –
4 | CC(C)C[C@@H]1NC(=O)[C@@H](Cc2ccc(O)cc2)NC(=O)CSC[C@@H](C(=O)N[C@@H](CO)C(=O)N[C@H](C(=O)N[C@@H](CS)C(=O)NCC(N)=O)[C@@H](C)O)NC(=O)[C@H](CC(N)=O)NC(=O)[C@@H]2CCCN2C(=O)[C@H](Cc2c[nH]c3ccccc23)NC(=O)[C@H](CC(=O)O)NC1=O [Bm-5] ({CH2CO}-[dY]LDWPNCSTCG-NH2; thioether N-7) | −87.1 ± 3.2 | 6.16 | 84.7 ± 1.2 | – | 74.3 ± 9.5 | 5.99 ± 0.69 | 83.1 ± 7.3 | 5.54 ± 0.20 | – | – | – | – | –
5 | C[C@@H](O)[C@H](NC(=O)[C@H](CO)NC(=O)[C@@H]1CSCC(=O)N[C@H](Cc2ccc(O)cc2)C(=O)N2CCC[C@H]2C(=O)N[C@@H](CCC(=O)O)C(=O)N[C@@H](Cc2c[nH]c3ccccc23)C(=O)N2CCC[C@H]2C(=O)N[C@@H](CC(N)=O)C(=O)N1)C(=O)N[C@@H](CS)C(=O)NCC(N)=O [Bm-6] ({CH2CO}-[dY]PEWPNCSTCG-NH2; thioether N-7) | −90.2 ± 1.2 | 6.16 | 86.8 ± 0.6 | – | 77.4 ± 4.3 | 6.08 ± 0.53 | 86 ± 3.2 | 5.55 ± 0.07 | – | – | – | – | –
6 | CC(C)[C@@H]1NC(=O)[C@H](C)NC(=O)[C@@H](Cc2ccc(O)cc2)NC(=O)CSC[C@@H](C(=O)N[C@@H](CCCNC(=N)N)C(=O)N[C@H](C(=O)N[C@@H](CS)C(=O)NCC(N)=O)[C@@H](C)O)NC(=O)[C@H](CC(N)=O)NC(=O)[C@@H]2CCCN2C(=O)[C@H](Cc2c[nH]c3ccccc23)NC1=O [Bm-7] ({CH2CO}-[dY]AVWPNCRTCG-NH2; thioether N-7) | −83.1 ± 9.7 | 5.28 | 74 ± 10.1 | – | 69.7 ± 12.3 | 5.37 ± 0.52 | 78 ± 19.9 | 5.12 ± 0.09 | – | – | – | – | –
7 | CC(C)C[C@H](NC(=O)[C@H](Cc1ccc(O)cc1)NC(=O)[C@@H]1CSCC(=O)N[C@H](Cc2ccc(O)cc2)C(=O)N[C@@H](CC(=O)O)C(=O)N[C@@H](Cc2ccc(O)cc2)C(=O)N2CCC[C@H]2C(=O)NCC(=O)N[C@@H](CC(=O)O)C(=O)N[C@@H](Cc2c[nH]cn2)C(=O)N1)C(=O)N[C@@H](Cc1ccc(O)cc1)C(=O)NCC(=O)N[C@H](C(=O)N[C@@H](CS)C(=O)NCC(N)=O)[C@@H](C)O [Ce-1] | – | – | 94 ± 3.4 | – | 96.5 ± 4.2 | – | 95.4 ± 2.6 | – | – | – | – | – | –
8 | CC(C)C[C@H](NC(=O)[C@H](Cc1ccc(O)cc1)NC(=O)[C@@H]1CSCC(=O)N[C@H](Cc2ccc(O)cc2)C(=O)N[C@@H](CC(=O)O)C(=O)N[C@@H](Cc2ccc(O)cc2)C(=O)N2CCC[C@H]2C(=O)NCC(=O)N[C@@H](CC(=O)O)C(=O)N[C@@H](Cc2ccc(O)cc2)C(=O)N1)C(=O)N[C@@H](Cc1ccc(O)cc1)C(=O)NCC(=O)N[C@H](C(=O)N[C@@H](CO)C(=O)NCC(N)=O)[C@@H](C)O [Ce-2S] | – | – | 97.7 ± 0.6 | – | 105 ± 2.5 | – | 97 ± 1.6 | – | – | – | 77.1 ± 7.5 | 68.1 ± 8.9 | 69.8 ± 9.3
9 | CC(C)C[C@H](NC(=O)[C@H](Cc1ccc(O)cc1)NC(=O)[C@@H]1CSCC(=O)N[C@H](Cc2ccc(O)cc2)C(=O)N[C@@H](CC(=O)O)C(=O)N[C@@H](Cc2ccc(O)cc2)C(=O)N2CCC[C@H]2C(=O)NCC(=O)N[C@@H](CC(=O)O)C(=O)N[C@@H](Cc2ccc(O)cc2)C(=O)N1)C(=O)N[C@@H](Cc1ccc(O)cc1)C(=O)NCC(=O)N[C@H](C(N)=O)[C@@H](C)O [Ce-2b] | – | – | 91.8 ± 5.4 | – | 95.3 ± 9 | – | 80.1 ± 2.1 | – | – | – | – | – | –
10 | CC(C)C[C@H](NC(=O)[C@H](Cc1ccc(O)cc1)NC(=O)[C@@H]1CSCC(=O)N[C@H](Cc2ccc(O)cc2)C(=O)N[C@@H](CC(=O)O)C(=O)N[C@@H](Cc2ccc(O)cc2)C(=O)N2CCC[C@H]2C(=O)NCC(=O)N[C@@H](CC(=O)O)C(=O)N[C@@H](Cc2ccc(O)cc2)C(=O)N1)C(=O)N[C@@H](Cc1ccc(O)cc1)C(=O)NCC(N)=O [Ce-2c] | – | – | 88.2 | – | 89.1 | – | 78.4 | – | – | – | – | – | –
11 | CC(C)C[C@H](NC(=O)[C@H](Cc1ccc(O)cc1)NC(=O)[C@@H]1CSCC(=O)N[C@H](Cc2ccc(O)cc2)C(=O)N[C@@H](CC(=O)O)C(=O)N[C@@H](Cc2ccc(O)cc2)C(=O)N2CCC[C@H]2C(=O)NCC(=O)N[C@@H](CC(=O)O)C(=O)N[C@@H](Cc2ccc(O)cc2)C(=O)N1)C(N)=O [Ce-2e] ({CH2CO}-[dY]DYPGDYCYL-NH2; thioether N-8) | – | – | 82.7 ± 6.1 | – | 94.5 ± 9 | – | 55.5 ± 1.4 | – | – | – | – | – | –
12 | NC(=O)[C@H](Cc1ccc(O)cc1)NC(=O)[C@@H]1CSCC(=O)N[C@H](Cc2ccc(O)cc2)C(=O)N[C@@H](CC(=O)O)C(=O)N[C@@H](Cc2ccc(O)cc2)C(=O)N2CCC[C@H]2C(=O)NCC(=O)N[C@@H](CC(=O)O)C(=O)N[C@@H](Cc2ccc(O)cc2)C(=O)N1 [Ce-2f] ({CH2CO}-[dY]DYPGDYCY-NH2; thioether N-8) | – | – | 14.8 | – | 79.6 | – | -4.3 | – | – | – | – | – | –
13 | CC[C@H](C)[C@@H]1NC(=O)[C@H](CCCNC(=N)N)NC(=O)[C@H](Cc2ccccc2)NC(=O)[C@@H]2CCCN2C(=O)[C@H](CC(N)=O)NC(=O)[C@H](C)NC(=O)[C@H](CC(C)C)NC(=O)[C@H]([C@@H](C)O)NC(=O)[C@H]([C@@H](C)CC)NC(=O)[C@H](Cc2ccc(O)cc2)NC(=O)CSC[C@@H](C(=O)NCC(N)=O)NC(=O)[C@H](Cc2c[nH]cn2)NC(=O)[C@H](CC(C)C)NC1=O [Ce-3] ({CH2CO}-YITLANPFRILHCG-NH2; thioether N-13) | −30.1 ± 32.2 | – | 13.3 ± 2 | – | 91.4 ± 1.3 | 5.26 ± 0.18 | 22.9 ± 30.8 | 6.27 ± 0.10 | – | – | – | – | –
14 | CC[C@H](C)[C@@H]1NC(=O)[C@H](CCCNC(=N)N)NC(=O)[C@H](Cc2ccccc2)NC(=O)[C@@H]2CCCN2C(=O)[C@H](CC(N)=O)NC(=O)[C@H](C)NC(=O)[C@H](CC(C)C)NC(=O)[C@H]([C@@H](C)O)NC(=O)[C@H]([C@@H](C)O)NC(=O)[C@H](Cc2ccc(O)cc2)NC(=O)CSC[C@@H](C(=O)NCC(N)=O)NC(=O)[C@H](Cc2c[nH]cn2)NC(=O)[C@H](CC(C)C)NC1=O [Ce-4] ({CH2CO}-YTTLANPFRILHCG-NH2; thioether N-13) | −22.1 ± 35.5 | – | 2.9 ± 3.3 | – | 44.3 ± 1.9 | 5.37 ± 0.14 | 23 ± 35.7 | – | – | – | – | – | –
15 | CC(=O)N[C@H](Cc1ccc(O)cc1)C(=O)N[C@@H](CC(=O)O)C(=O)N[C@@H](Cc1ccc(O)cc1)C(=O)N1CCC[C@H]1C(=O)NCC(=O)N[C@@H](CC(=O)O)C(=O)N[C@@H](Cc1ccc(O)cc1)C(=O)N[C@@H](CO)C(=O)N[C@@H](Cc1ccc(O)cc1)C(=O)N[C@@H](CC(C)C)C(=O)N[C@@H](Cc1ccc(O)cc1)C(=O)NCC(=O)N[C@H](C(=O)N[C@@H](CS)C(=O)NCC(N)=O)[C@@H](C)O [Ce-L2] (Ac-[dY]DYPGDYSYLYGTCG-NH2) | −44 ± 22.6 | – | 48.2 ± 18.2 | 5.88 | 95.1 ± 5.2 | – | 40.2 ± 27.6 | – | – | 4.89 ± 0.21 | – | – | –
